We go through two substances from publication PMC9500858 (International Journal of Molecular Sciences, 2022).

“Also recorded” adds a separate entry of the source.

One data set in a line: HCl (1 M). The note with it: 80 °C for 12 h and 37°C for 24 h, up to 96 h.
Data set [1] can be described thus: 30% (v/v) hydrogen peroxide (H2O2). The note with it: 37 °C for 24 h and 80 °C for 12 h, up to 24 h.
A short description of data set [2]: 1 M NaOH (base hydrolysis). The note with it: 37 °C (24 h) and 80 °C (12 h), up to 96 h (time course, Figure 2D); 24 h at 37 °C; 12 h at 80 °C.
Data set [3] in a line: 1 M HCl (acid hydrolysis). The note with it: 37 °C (24 h) and 80 °C (12 h), up to 96 h (time course, Figure 2C); 24 h at 37 °C; 12 h at 80 °C.

With “HELM PEPTIDE1{[Cc1cc(O)cc(C)c1C[C@H](N)C(=O)[*:2]].[dK].F.F.K.K.P.F.I.L}$$$$V2.0 (N-terminus assumed; SMILES CC[C@H](C)[C@H](NC(=O)[C@H](Cc1ccccc1)NC(=O)[C@@H]1CCCN1C(=O)[C@H](CCCCN)NC(=O)[C@H](CCCCN)NC(=O)[C@H](Cc1ccccc1)NC(=O)[C@H](Cc1ccccc1)NC(=O)[C@@H](CCCCN)NC(=O)[C@@H](N)Cc1c(C)cc(O)cc1C)C(=O)N[C@@H](CC(C)C)C(=O)O)”, the cleaved bond result in the data set “HCl (1 M)” is “Phe-Ile9; also recorded: D-Lys2-Phe”; in data set [1] it was “Dmt1-D-Lys2”.
As to “HELM PEPTIDE1{[Cc1cc(O)cc(C)c1C[C@H](N)C(=O)[*:2]].[dK].F.F.K.K.P.F.[CC(C)(C)[C@H](N[*:1])C(=O)[*:2]].L}$$$$V2.0 (N-terminus assumed; SMILES Cc1cc(O)cc(C)c1C[C@H](N)C(=O)N[C@H](CCCCN)C(=O)N[C@@H](Cc1ccccc1)C(=O)N[C@@H](Cc1ccccc1)C(=O)N[C@@H](CCCCN)C(=O)N[C@@H](CCCCN)C(=O)N1CCC[C@H]1C(=O)N[C@@H](Cc1ccccc1)C(=O)N[C@H](C(=O)N[C@@H](CC(C)C)C(=O)O)C(C)(C)C)”, the fragment found entry is listed as “compound H—Phe-Lys-Lys-Pro-Phe-Tle-Leu; also recorded: compound K—Pro-Phe-Tle; also recorded: compound J (Pro-Phe-Tle-Leu)” in data set [2] and “compound H—Phe-Lys-Lys-Pro-Phe-Tle-Leu; also recorded: compound K—Pro-Phe-Tle” in data set [3].
